Laboratory results: PubChem BioAssay (NCI)
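Briefly, cells in 96-well plates were exposed to five compound concentrations for 48 h, and endpoints were estimated by linear interpolation. GI50 = concentration required for 50% inhibition of growth. TGI denotes the concentration required for complete inhibition of growth.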

Key:
Assay in all cases: NCI tumour cell line growth inhibition, 48 h
786-0 renal = tested on: 786-0 renal
A498 renal = tested on: A498 renal
A549 NSCLC = tested on: A549 NSCLC
ACHN renal = tested on: ACHN renal
BT-549 breast = tested on: BT-549 breast
CAKI-1 renal = tested on: CAKI-1 renal
CCRF-CEM leukemia = tested on: CCRF-CEM leukemia
COLO 205 colon = tested on: COLO 205 colon
DU-145 prostate = tested on: DU-145 prostate
EKVX NSCLC = tested on: EKVX NSCLC
HCC-2998 colon = tested on: HCC-2998 colon
HCT-116 colon = tested on: HCT-116 colon
HCT-15 colon = tested on: HCT-15 colon
HL-60(TB) leukemia = tested on: HL-60(TB) leukemia
HOP-62 NSCLC = tested on: HOP-62 NSCLC
HOP-92 NSCLC = tested on: HOP-92 NSCLC
HS 578T breast = tested on: HS 578T breast
HT29 colon = tested on: HT29 colon
IGROV1 ovarian = tested on: IGROV1 ovarian
K-562 leukemia = tested on: K-562 leukemia
KM12 colon = tested on: KM12 colon
LOX IMVI melanoma = tested on: LOX IMVI melanoma
M14 melanoma = tested on: M14 melanoma
MALME-3M melanoma = tested on: MALME-3M melanoma
MCF7 breast = tested on: MCF7 breast
MDA-MB-231 breast = tested on: MDA-MB-231 breast
MDA-MB-435 = tested on: MDA-MB-435
MOLT-4 leukemia = tested on: MOLT-4 leukemia
NCI-H226 lung = tested on: NCI-H226 lung
NCI-H23 lung = tested on: NCI-H23 lung
NCI-H460 lung = tested on: NCI-H460 lung
NCI-H522 lung = tested on: NCI-H522 lung
NCI/ADR-RES ovarian = tested on: NCI/ADR-RES ovarian
OVCAR-4 ovarian = tested on: OVCAR-4 ovarian
OVCAR-5 ovarian = tested on: OVCAR-5 ovarian
OVCAR-8 ovarian = tested on: OVCAR-8 ovarian
PC-3 prostate = tested on: PC-3 prostate
RPMI-8226 leukemia = tested on: RPMI-8226 leukemia
RXF 393 renal = tested on: RXF 393 renal
SF-268 CNS = tested on: SF-268 CNS
SF-295 CNS = tested on: SF-295 CNS
SF-539 CNS = tested on: SF-539 CNS
SK-MEL-2 melanoma = tested on: SK-MEL-2 melanoma
SK-MEL-28 melanoma = tested on: SK-MEL-28 melanoma
SK-MEL-5 melanoma = tested on: SK-MEL-5 melanoma
SK-OV-3 ovarian = tested on: SK-OV-3 ovarian
SN12C renal = tested on: SN12C renal
SNB-19 CNS = tested on: SNB-19 CNS
SNB-75 CNS = tested on: SNB-75 CNS
SR leukemia = tested on: SR leukemia
SW-620 colon = tested on: SW-620 colon
T-47D breast = tested on: T-47D breast
TK-10 renal = tested on: TK-10 renal
U251 CNS = tested on: U251 CNS
UACC-257 melanoma = tested on: UACC-257 melanoma
UACC-62 melanoma = tested on: UACC-62 melanoma
UO-31 renal = tested on: UO-31 renal

N#Cc1cnc2ccc(-c3cnc(N)nc3)cc2c1N1CCc2cc(F)c(Cl)cc21
GI50 (786-0 renal): 425 nM | TGI (786-0 renal): 3950 nM | GI50 (A498 renal): 147 nM | TGI (A498 renal): 552 nM | GI50 (A549 NSCLC): 479 nM | TGI (A549 NSCLC): 13200 nM | GI50 (ACHN renal): 489 nM | TGI (ACHN renal): 11900 nM | GI50 (BT-549 breast): 239 nM | TGI (BT-549 breast): 1800 nM | GI50 (CAKI-1 renal): 268 nM | TGI (CAKI-1 renal): 2800 nM | GI50 (CCRF-CEM leukemia): 486 nM | TGI (CCRF-CEM leukemia): > 100000 nM | GI50 (COLO 205 colon): 795 nM | TGI (COLO 205 colon): 2850 nM | GI50 (DU-145 prostate): 510 nM | TGI (DU-145 prostate): > 39500 nM | GI50 (EKVX NSCLC): 496 nM | TGI (EKVX NSCLC): 3950 nM | GI50 (HCC-2998 colon): 572 nM | TGI (HCC-2998 colon): 7500 nM | GI50 (HCT-116 colon): 917 nM | TGI (HCT-116 colon): 2640 nM | GI50 (HCT-15 colon): 385 nM | TGI (HCT-15 colon): 11500 nM | GI50 (HL-60(TB) leukemia): 705 nM | TGI (HL-60(TB) leukemia): 4380 nM | GI50 (HOP-62 NSCLC): 434 nM | TGI (HOP-62 NSCLC): > 21700 nM | GI50 (HOP-92 NSCLC): 201 nM | TGI (HOP-92 NSCLC): 1180 nM | GI50 (HS 578T breast): 186 nM | TGI (HS 578T breast): 774 nM | GI50 (HT29 colon): 587 nM | TGI (HT29 colon): 9740 nM | GI50 (IGROV1 ovarian): 235 nM | TGI (IGROV1 ovarian): 1260 nM | GI50 (K-562 leukemia): 997 nM | TGI (K-562 leukemia): > 100000 nM | GI50 (KM12 colon): 773 nM | TGI (KM12 colon): 4180 nM | GI50 (LOX IMVI melanoma): 355 nM | TGI (LOX IMVI melanoma): 7970 nM | GI50 (M14 melanoma): 612 nM | TGI (M14 melanoma): 8510 nM | GI50 (MALME-3M melanoma): 366 nM | TGI (MALME-3M melanoma): 2960 nM | GI50 (MCF7 breast): 300 nM | TGI (MCF7 breast): 14000 nM | GI50 (MDA-MB-231 breast): 450 nM | TGI (MDA-MB-231 breast): 7930 nM | GI50 (MDA-MB-435): 495 nM | TGI (MDA-MB-435): 3560 nM | GI50 (MOLT-4 leukemia): 577 nM | TGI (MOLT-4 leukemia): > 64600 nM | GI50 (NCI-H226 lung): 555 nM | TGI (NCI-H226 lung): 11300 nM | GI50 (NCI-H23 lung): 1010 nM | TGI (NCI-H23 lung): 9840 nM | GI50 (NCI-H460 lung): 425 nM | TGI (NCI-H460 lung): 11000 nM | GI50 (NCI-H522 lung): 1270 nM | TGI (NCI-H522 lung): 8080 nM | GI50 (NCI/ADR-RES ovarian): 827 nM | TGI (NCI/ADR-RES ovarian): 25900 nM | GI50 (OVCAR-4 ovarian): 314 nM | TGI (OVCAR-4 ovarian): 7240 nM | GI50 (OVCAR-5 ovarian): 437 nM | TGI (OVCAR-5 ovarian): 11300 nM | GI50 (OVCAR-8 ovarian): 453 nM | TGI (OVCAR-8 ovarian): 13900 nM | GI50 (PC-3 prostate): 445 nM | TGI (PC-3 prostate): 12300 nM | GI50 (RPMI-8226 leukemia): 325 nM | TGI (RPMI-8226 leukemia): 3190 nM | GI50 (RXF 393 renal): 221 nM | TGI (RXF 393 renal): 1250 nM | GI50 (SF-268 CNS): 437 nM | TGI (SF-268 CNS): 5280 nM | GI50 (SF-295 CNS): 311 nM | TGI (SF-295 CNS): 4490 nM | GI50 (SF-539 CNS): 505 nM | TGI (SF-539 CNS): 3360 nM | GI50 (SK-MEL-2 melanoma): 531 nM | TGI (SK-MEL-2 melanoma): 2020 nM | GI50 (SK-MEL-28 melanoma): 703 nM | TGI (SK-MEL-28 melanoma): 6730 nM | GI50 (SK-MEL-5 melanoma): 1220 nM | TGI (SK-MEL-5 melanoma): 2520 nM | GI50 (SK-OV-3 ovarian): 391 nM | TGI (SK-OV-3 ovarian): 3690 nM | GI50 (SN12C renal): 395 nM | TGI (SN12C renal): 14700 nM | GI50 (SNB-19 CNS): 964 nM | TGI (SNB-19 CNS): 17200 nM | GI50 (SNB-75 CNS): 144 nM | TGI (SNB-75 CNS): 834 nM | GI50 (SR leukemia): 329 nM | TGI (SR leukemia): > 19900 nM | GI50 (SW-620 colon): 977 nM | TGI (SW-620 colon): 10800 nM | GI50 (T-47D breast): 233 nM | GI50 (TK-10 renal): 260 nM | TGI (TK-10 renal): 2000 nM | GI50 (U251 CNS): 714 nM | TGI (U251 CNS): 9580 nM | GI50 (UACC-257 melanoma): 1300 nM | TGI (UACC-257 melanoma): 6870 nM | GI50 (UACC-62 melanoma): 363 nM | TGI (UACC-62 melanoma): 2600 nM | GI50 (UO-31 renal): 142 nM | TGI (UO-31 renal): 4640 nM
